Source: patent US11242337B2, “Compounds useful for treating gastrointestinal tract disorders” (Ardelyx, Inc., priority 2017, dated 2022)

Columns and labels:
[1] = target: T1, NHE3 (Homo sapiens, UniProt P48764); assay: Cell-based assay of NHE-3 activity (pre-incubation inhibition), human; conditions: human Preincubation; for pIC50: 0-30 μM test compound
T1 construct: expressed in transfected cells
T1 sequence (P48764 26-834): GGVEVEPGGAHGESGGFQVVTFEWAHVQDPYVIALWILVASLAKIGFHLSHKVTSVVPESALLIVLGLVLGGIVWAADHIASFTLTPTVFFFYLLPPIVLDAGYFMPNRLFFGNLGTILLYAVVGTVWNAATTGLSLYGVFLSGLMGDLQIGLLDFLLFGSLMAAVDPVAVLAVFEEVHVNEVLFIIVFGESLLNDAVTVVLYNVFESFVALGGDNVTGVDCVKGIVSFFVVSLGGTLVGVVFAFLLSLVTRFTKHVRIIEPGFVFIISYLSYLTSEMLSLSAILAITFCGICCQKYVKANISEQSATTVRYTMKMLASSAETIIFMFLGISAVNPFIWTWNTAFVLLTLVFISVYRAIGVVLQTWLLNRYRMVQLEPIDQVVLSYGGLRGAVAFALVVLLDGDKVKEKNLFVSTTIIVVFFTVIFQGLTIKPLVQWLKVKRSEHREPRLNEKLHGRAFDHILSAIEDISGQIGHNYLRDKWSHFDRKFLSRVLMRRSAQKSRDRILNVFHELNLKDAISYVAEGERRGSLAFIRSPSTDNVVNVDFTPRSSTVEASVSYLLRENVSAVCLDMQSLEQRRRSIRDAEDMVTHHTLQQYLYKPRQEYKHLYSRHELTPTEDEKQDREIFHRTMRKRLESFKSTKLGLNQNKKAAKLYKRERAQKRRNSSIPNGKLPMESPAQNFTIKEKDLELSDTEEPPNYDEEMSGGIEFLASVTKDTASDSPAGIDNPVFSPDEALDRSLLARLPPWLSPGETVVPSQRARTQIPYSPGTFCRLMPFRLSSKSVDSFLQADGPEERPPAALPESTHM
T1 sequence (Q99653 2-195 partner limits assumed): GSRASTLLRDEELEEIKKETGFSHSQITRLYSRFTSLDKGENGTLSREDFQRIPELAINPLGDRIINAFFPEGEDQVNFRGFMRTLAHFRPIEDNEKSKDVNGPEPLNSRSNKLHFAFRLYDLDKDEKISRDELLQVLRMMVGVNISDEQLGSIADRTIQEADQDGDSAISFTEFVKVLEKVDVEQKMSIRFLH
Protocol: Rat and human NHE-3-mediated Na^+-dependent H^+ antiport was measured using a modification of the pH sensitive dye method originally reported by Paradiso (Proc. Natl. Acad. Sci. USA. (1984) 81(23): 7436-7440). PS120 fibroblasts stably expressing human NHE3 and NHERF2 were obtained from Mark Donowitz (Baltimore, Md.). Opossum kidney (OK) cells were obtained from the ATCC and propagated per their instructions. The rat NHE-3 gene (GenBank M85300) was introduced into OK cells via electroporation, and cells were seeded into 96 well plates and grown overnight. Medium was aspirated from the wells then incubated for 30 min at 37° C. with NH4Cl-HEPES buffer (20 mM NH4Cl, 80 mM NaCl, 50 mM HEPES, 5 mM KCl, 2 mM CaCl2, 1 mM MgCl2, pH 7.4) containing 5 μM BCECF-AM. Cells were washed once with Ammonium free, Na^+-free HEPES (100 mM choline, 50 mM HEPES, 10 mM glucose, 5 mM KCl, 2 mM CaCl2, 1 mM MgCl2, pH 7.4) and incubated in the same buffer for 10 minutes at room temperature to lower intracellular pH with 0-30 μM test compound. […] Changes in intracellular pH were monitored using a FLIPR Tetra® (Molecular Devices, Sunnyvale, Calif.) by excitation at λex 439 to 505 nm, and measuring BCECF fluorescence at λem 538 nm. The initial rate of the fluorescence ratio change was used as a measure of NHE-mediated Na^+/H^+ activity, and reported as the change in fluorescence ratio per minute.

[2] = target: T1, NHE3; assay: Cell-based assay of NHE-3 activity (persistent inhibition), human; conditions: human Persistence, 60 min incubation then washout
Protocol: The ability of compounds to inhibit human and rat NHE-3-mediated Na^+ dependent H^+ antiport after application and washout was measured using a modification of the pH sensitive dye method described above. PS120 fibroblasts stably expressing human NHE3 and NHERF2 were obtained from Mark Donowitz (Baltimore, Md.). Opossum kidney (OK) cells were obtained from the ATCC and propagated per their instructions. The rat NHE-3 gene was introduced into OK cells via electroporation, and cells were seeded into 96 well plates and grown overnight. Medium was aspirated from the wells, cells were washed once with NaCl-HEPES buffer (100 mM NaCl, 50 mM HEPES, 10 mM glucose, 5 mM KCl, 2 mM CaCl2, 1 mM MgCl2, pH 7.4), then overlayed with NaCl-HEPES buffer containing 0-30 μM test compound. After a 60 min incubation at room temperature, the test drug containing buffer was aspirated from the cells. Following aspiration, cells were washed once with NaCl-HEPES buffer without drug, then incubated for 30 min at 37° C. with NH4Cl-HEPES buffer (20 mM NH4Cl, 80 mM NaCl, 50 mM HEPES, 5 mM KCl, 2 mM CaCl2, 1 mM MgCl2, pH 7.4) containing 5 μM BCECF-AM. Cells were washed once with Ammonium free, Na^+-free HEPES (100 mM choline, 50 mM HEPES, 10 mM glucose, 5 mM KCl, 2 mM CaCl2, 1 mM MgCl2, pH 7.4) and incubated in the same buffer for 10 minutes at room temperature to lower intracellular pH. NHE-3-mediated recovery of neutral intracellular pH was initiated (10 min after compound washout) by addition of Na-HEPES buffer. […] Changes in intracellular pH were monitored using a FLIPR Tetra® (Molecular Devices, Sunnyvale, Calif.) by excitation at λex 439 to 505 nm, and measuring BCECF fluorescence at λem 538 nm. The initial rate of the fluorescence ratio change was used as a measure of NHE-mediated Na^+/H^+ activity, and reported as the change in fluorescence ratio per minute.

% inhibition [1] | pIC50 [1] | % inhibition [2] | pIC50 [2] | Structure (SMILES)
C (>70%) | C (NHE3 pIC50 > 7) | B (40-70%) | C (NHE3 pIC50 > 7) | Cc1cc(S(=O)(=O)NCCOCCOCCNC(=O)NCCCCNC(=O)NCCOCCOCCNS(=O)(=O)c2ccc(O[C@H]3c4cc(Cl)cc(Cl)c4C[C@@H]3N3CCC[C@@H](N)C3)c(C)c2)ccc1O[C@H]1c2cc(Cl)cc(Cl)c2C[C@@H]1N1CCC[C@@H](N)C1 [Example 1, 1-[2-(2-[2-[(4-[[(1S,2S)-2-[(3R)-3-Aminopiperidin-1-yl]-4,6-dichloro-2,3-dihydro-1H-inden-1-yl]oxy]-3-methylbenzene)sulfonamido]ethoxy]ethoxy)ethyl]-3-[4-([[2-(2-[2-([4-[[(1S,2S)-2-[(3R)-3-aminopiperidin-1-yl]-4,6-dichloro-2,3-dihydro-1H-inden-1-yl]oxy]-3-methylbenzene)sulfonamido]ethoxy]ethoxy)ethyl]carbamoyl]amino)butyl]urea]
C (>70%) |  | C (>70%) |  | N[C@@H]1CCCN([C@H]2Cc3c(Cl)cc(Cl)cc3[C@@H]2Oc2ccc(S(=O)(=O)NCCOCCOCCNC(=O)NCCCCNC(=O)NCCOCCOCCNS(=O)(=O)c3ccc(O[C@H]4c5cc(Cl)cc(Cl)c5C[C@@H]4N4CCC[C@@H](N)C4)c(F)c3)cc2F)C1 [Example 2]
C (>70%) |  | C (>70%) |  | Cc1cc(Cl)cc2c1C[C@H](N1CCC[C@@H](N)C1)[C@H]2Oc1ccc(S(=O)(=O)NCCOCCOCCNC(=O)NCCCCNC(=O)NCCOCCOCCNS(=O)(=O)c2ccc(O[C@H]3c4cc(Cl)cc(C)c4C[C@@H]3N3CCC[C@@H](N)C3)cc2)cc1 [Example 3, 3-[2-(2-[2-[(4-[[(1S,2S)-2-[(3R)-3-Aminopiperidin-1-yl]-6-chloro-4-methyl-2,3-dihydro-1H-inden-1-yl]oxy]benzene)sulfonamido]ethoxy]ethoxy)ethyl]-1-[4-([[2-(2-[2-[(4-[[(1S,2S)-2-[(3R)-3-aminopiperidin-1-yl]-6-chloro-4-methyl-2,3-dihydro-1H-inden-1-yl]oxy]benzene)sulfonamido]ethoxy]ethoxy)ethyl]carbamoyl]amino)butyl]urea]
B (40-70%) |  | B (40-70%) |  | N#Cc1cc(Cl)cc2c1C[C@H](N1CCC[C@@H](N)C1)[C@H]2Oc1ccc(S(=O)(=O)NCCOCCOCCNC(=O)NCCCCNC(=O)NCCOCCOCCNS(=O)(=O)c2ccc(O[C@H]3c4cc(Cl)cc(C#N)c4C[C@@H]3N3CCC[C@@H](N)C3)cc2)cc1 [Example 4, 3-[2-(2-[2-[(4-[[(1S,2S)-2-[(3R)-3-Aminopiperidin-1-yl]-6-chloro-4-cyano-2,3-dihydro-1H-inden-1-yl]oxy]benzene)sulfonamido]ethoxy]ethoxy)ethyl]-1-[4-([[2-(2-[2-[(4-[[(1S,2)-2-[(3R)-3-aminopiperidin-1-yl]-6-chloro-4-cyano-2,3-dihydro-1H-inden-1-yl]oxy]benzene)sulfonamido]ethoxy]ethoxy)ethyl]carbamoyl]amino)butyl]urea; bis(trifluoroacetic acid)]
B (40-70%) |  | C (>70%) |  | COc1cc(Cl)cc2c1C[C@H](N1CCC[C@@H](N)C1)[C@H]2Oc1ccc(S(=O)(=O)NCCOCCOCCNC(=O)NCCCCNC(=O)NCCOCCOCCNS(=O)(=O)c2ccc(O[C@H]3c4cc(Cl)cc(OC)c4C[C@@H]3N3CCC[C@@H](N)C3)cc2)cc1 [Example 5, 3-[2-(2-[2-[(4-[[(1S,2S)-2-[(3R)-3-Aminopiperidin-1 yl]-6-chloro-4-methoxy-2,3-dihydro-1H-inden-1-yl]oxy]benzene)sulfonamido]ethoxy]ethoxy)ethyl]-1-[4-[[(2-(2-[2-[(4-[[(1S,2S)-2-[(3R)-3-aminopiperidin-1-yl]-6-chloro-4-methoxy-2,3-dihydro-1H-inden-1-yl]oxy]benzene)sulfonamido]ethoxy]ethoxy)ethyl]carbamoyl]amino)butyl]urea; bis(trifluoroacetic acid)]
A (NHE3 < 40%) | A (NHE3 pIC50 < 6) | A (NHE3 < 40%) | A (NHE3 pIC50 < 6) | Cc1cc(S(=O)(=O)NCCOCCOCCNC(=O)NCCCCNC(=O)NCCOCCOCCNS(=O)(=O)c2ccc(O[C@H]3c4cc(Cl)cc(F)c4C[C@@H]3N3CCC[C@@H](N)C3)c(C)c2)ccc1O[C@H]1c2cc(Cl)cc(F)c2C[C@@H]1N1CCC[C@@H](N)C1 [Example 6]
C (>70%) |  | C (>70%) |  | Cc1cc(S(=O)(=O)NCCOCCOCCNC(=O)NCCCCNC(=O)NCCOCCOCCNS(=O)(=O)c2ccc(O[C@H]3c4cc(Cl)cc(C)c4C[C@@H]3N3CCC[C@@H](N)C3)c(C)c2)ccc1O[C@H]1c2cc(Cl)cc(C)c2C[C@@H]1N1CCC[C@@H](N)C1 [Example 7, 3-[2-(2-[2-[(4-[[(1S,2S)-2-[(3R)-3-Aminopiperidin-1-yl]-6-chloro-4-methyl-2,3-dihydro-1H-inden-1-yl]oxy]-3-methylbenzene)sulfonamido]ethoxy]ethoxy)ethyl]-1-[4-([[2-(2-[2-[(4-[[(1S,2S)-2-[(3R)-3-aminopiperidin-1-yl]-6-chloro-4-methyl-2,3-dihydro-1H-inden-1-yl]oxy]-3-methylbenzene)sulfonamido]ethoxy]ethoxy)ethyl]carbamoyl]amino)butyl]urea]
A (NHE3 < 40%) |  | A (NHE3 < 40%) |  | Cc1cc(S(=O)(=O)NCCOCCOCCNC(=O)NCCCCNC(=O)NCCOCCOCCNS(=O)(=O)c2ccc(O[C@H]3c4cc(Cl)cc(C#N)c4C[C@@H]3N3CCC[C@@H](N)C3)c(C)c2)ccc1O[C@H]1c2cc(Cl)cc(C#N)c2C[C@@H]1N1CCC[C@@H](N)C1 [Example 8, 3-[2-(2-[2-[(4-[[(1S,2S)-2-[(3R)-3-Aminopiperidin-1-yl]-6-chloro-4-cyano-2,3-dihydro-1H-inden-1-yl]oxy]-3-methylbenzene)sulfonamido]ethoxy]ethoxy)ethyl]-1-[4-([[2-(2-[2-[(4-[[(1S,2S)-2-[(3R)-3-aminopiperidin-1-yl]-6-chloro-4-cyano-2,3-dihydro-1H-inden-1-yl]oxy]-3-methylbenzene)sulfonamido]ethoxy]ethoxy)ethyl]carbamoyl]amino)butyl]urea; bis(trifluoroacetic acid)]
